For data set [1], the system named is rabbit platelet. The data set can be described thus: Collagen-induced aggregation in rabbit platelets (AG-II Aggregometer). The format is cell-based. Also on record: inhibition: dose or concentration left out as unconfirmed. As to conditions: Oryctolagus cuniculus, Platelet, read-out: Inhibition effect on collagen induced aggregation in rabbit platelet; for inhibition at 100 µM (stock): 10^-4 mole; for inhibition at 10 µM (stock): 10^-5 mole; for inhibition at 1 µM (stock): 10^-6 mole; for inhibition at 0.1 µM (stock): 10^-7 mole. The procedure: (§1) The platelet aggregation inhibitory effect is measured by using AG-II Aggregometer (manufactured by Bryston Manufacturing Co.). The blood sample used for the test is a 1/9 (by volume) mixture of sodium citrate and whole blood collected from rabbit. Said sample is subjected to 10-minute centrifugal separation at 1,000 r.p.m. to obtain a platelet rich plasma (PRP). The thus obtained PRP is separated, and the remaining blood sample is further subjected to 15-minute centrifugal separation at 3,000 r.p.m. to obtain a platelet poor plasma (PPP).
(§2) The number of platelets in the PRP is counted by the Brecher-Clonkite Method, and the PRP is diluted with the PPP to prepare a PRP sample with platelet concentration of 300,000/mm^3 for the adenosine diphosphate (ADP)-induced aggregation test. There is also prepared a PRP sample with platelet concentration of 450,000/mm^3 for the collagen-induced aggregation test.
(§3) 0.6 ml of said PRP sample is added into 0.01 ml of a solution of a test compound of a predetermined concentration and the mixture is placed in a 37° C. thermostat for one minute. Then 0.07 ml of an ADP or collagen solution is added to the mixture. Transmittance of this mixture is determined and the change of transmittance is recorded by using the aggregometer at stirrer speed of 1,100 r.p.m. In this test, Auren Beronal buffer (pH 7.35) is used for the preparation of the ADP or collagen solution. ADP is adjusted to a concentration of 7.5×10^-5 M, and the collagen solution is prepared by triturating 100 mg of collagen with 5 ml of said buffer and the supernatant is used as collagen inducer. Adenosine and acetylsalicylic acid are used as controls for the ADP-induced aggregation test and the collagen-induced aggregation test, respectively. The platelet aggregation inhibitory effect is measured in terms of percent inhibition with respect to the aggregation rate of the controls. The aggregation rate is calculated from the following formula:
(§4) Aggregation rate=(c-a)/(b-a)×100
(§5) b: transmittance of PRP containing a test compound and an aggregation inducer
(§6) The inhibitory effect of the tested compounds on collagen-induced aggregation in rabbit platelets is shown in Table 1, and such effect on ADP-induced aggregation is shown in Table 2. The compounds tested are as follows.

For data set [2], the system named is rabbit platelet. The data set can be described thus: ADP-induced aggregation in rabbit platelets (AG-II Aggregometer). The format is cell-based. Details: inhibition: dose or concentration left out as unconfirmed. The following applies: Oryctolagus cuniculus, Platelet, read-out: Inhibition effect on ADP-induced aggregation in rabbit platelet; for inhibition at 100 µM (stock): 10^-4 mole; for inhibition at 10 µM (stock): 10^-5 mole; for inhibition at 1 µM (stock): 10^-6 mole. The procedure:
as §1, §2, §3, §4, §5, §6

Data set [3] can be described thus: Acute toxicity test, oral administration to mice. The format is in vivo. The following applies: mouse, in vivo, Male mice. The method, then:
The test compounds were administered orally to the mice and LD50 (mg/kg) of the compounds was determined.

In general, inhibition refers to the drop in the measured response relative to a control, in per cent. In general, LD50 refers to the dose at which mortality reaches 50%.

As for `CCCCN(C(=O)CCCCOc1ccc2c(c1)CCC(=O)N2)C1CCCCC1` [compound 22, 6-[4-(N-Butyl-N-cyclohexylaminocarbonyl)buthoxy]-3,4-dihydrocarbostyril], in data set [1], the inhibition at 100 µM (stock) stood at 85.6%, the inhibition at 10 µM (stock) is 78.5% and the inhibition at 1 µM (stock) amounted to 28.7%. In addition, in data set [2], the inhibition at 100 µM (stock) is 71.5%, the inhibition at 10 µM (stock) came out at 32.7% and the inhibition at 1 µM (stock) was determined as 10.5%. This compound gave an LD50 in data set [3] of over 1000 mg/kg.

For `O=C1CCc2cc(OCCCC(=O)N(c3ccccc3)c3ccccc3)ccc2N1` [compound 24, 6-[3-(N,N-Diphenylaminocarbonyl)propoxy]-3,4-dihydrocarbostyril], in data set [1], the inhibition at 100 µM (stock) was 82.7%, the inhibition at 10 µM (stock) is 43.5% and the inhibition at 1 µM (stock) was 15.5%. In addition, in data set [2], the inhibition at 100 µM (stock) was determined as 43.2%, the inhibition at 10 µM (stock) was found to be 22.3% and the inhibition at 1 µM (stock) was 13.4%. In data set [3], the LD50 was over 1000 mg/kg.

With `CC(COc1ccc2[nH]c(=O)ccc2c1)CC(=O)N(C)C1CCCCC1` (centres unmarked) [compound 9, 6-[3-(N-Methyl-N-cyclohexylaminocarbonyl)-2-methylpropoxy]carbostyril], in data set [1], the inhibition at 100 µM (stock) is 100%, the inhibition at 10 µM (stock) stood at 100%, the inhibition at 1 µM (stock) is 100% and the inhibition at 0.1 µM (stock) worked out at 11.2%. In addition, in data set [2], the inhibition at 100 µM (stock) worked out at 92.8%, the inhibition at 10 µM (stock) is 70.4% and the inhibition at 1 µM (stock) is 5.8%. The LD50 in data set [3] is over 1000 mg/kg.

As for `CCN1C(=O)CCc2c(OCCCC(=O)NCc3ccccc3)cccc21` [compound 44, 1-Ethyl-5-[3-(N-benzylaminocarbonyl)propoxy]-3,4-dihydrocarbostyril, reference compound], in data set [1], the inhibition at 100 µM (stock) turned out to be 7%, the inhibition at 10 µM (stock) was 0% and the inhibition at 1 µM (stock) came out at 0%. In addition, in data set [2], the inhibition at 100 µM (stock) is 14%, the inhibition at 10 µM (stock) is 6% and the inhibition at 1 µM (stock) is 0%. In data set [3], this compound returned an LD50 of 500 to 600 mg/kg.

Turning to `CN(C(=O)CCCOc1ccc2[nH]c(=O)ccc2c1)C1CCC(O)CC1` (centres unmarked) [compound 2, 6-{3-[N-Methyl-N-(4-hydroxycyclohexyl)aminocarbonyl]propoxy}carbostyril], the results for the inhibition at 10 µM (stock) in data set [1] and in data set [2] were 100% and 90.3%, respectively. In addition, the inhibition at 1 µM (stock) in data set [1] came to 89.7%; in data set [2], 54.3%. In data set [3], this compound showed an LD50 of over 1000 mg/kg.

In the case of `O=C(CCCOc1ccc2[nH]c(=O)ccc2c1)NC1CCCCC1` [compound 13, 6-[3-(N-Cyclohexylaminocarbonyl)propoxy]carbostyril], in data set [1], the inhibition at 100 µM (stock) worked out at 87.5%, the inhibition at 10 µM (stock) amounted to 45.8% and the inhibition at 1 µM (stock) is 23.3%. Further, in data set [2], the inhibition at 100 µM (stock) stood at 39.6%, the inhibition at 10 µM (stock) came to 24.8% and the inhibition at 1 µM (stock) came out at 18%. For the same compound, the LD50 in data set [3] is over 1000 mg/kg.

On to `O=C1CCc2cc(OCCCC(=O)OC3CCCCC3)ccc2N1` [compound 40, 6-(3-Cyclohexyloxycarbonylpropoxy)-3,4-dihydrocarbostyril, reference compound], for which, in data set [1], the inhibition at 100 µM (stock) amounted to 12%, the inhibition at 10 µM (stock) was found to be 8% and the inhibition at 1 µM (stock) was 0%. In addition, in data set [2], the inhibition at 100 µM (stock) came to 28%, the inhibition at 10 µM (stock) was 16% and the inhibition at 1 µM (stock) is 7%. This compound came in with a 50% lethal dose (LD50) in data set [3] of 500 to 800 mg/kg.

Consider `O=C(CCCOc1ccc2[nH]c(=O)ccc2c1)N(c1ccccc1)C1CCCCC1` [compound 17, 6-[3-(N-Cyclohexylanilinocarbonyl)propoxy]carbostyril], for which, in data set [1], the inhibition at 100 µM (stock) was found to be 91.5%, the inhibition at 10 µM (stock) is 53.8% and the inhibition at 1 µM (stock) turned out to be 16.7%. Besides, in data set [2], the inhibition at 100 µM (stock) amounted to 82.5%, the inhibition at 10 µM (stock) was determined as 38.7% and the inhibition at 1 µM (stock) is 12.3%. In data set [3], this compound yielded an LD50 of over 1000 mg/kg.

With `O=C1CCc2cc(OCCCC(=O)N(C3CCCCC3)C3CCCCC3Cl)ccc2N1` (centres unmarked) [compound 7, 6-{3-[N-Cyclohexyl-N-(2-chlorocyclohexyl)aminocarbonyl]propoxy}-3,4-dihydrocarbostyril], the inhibition in data set [1] was determined as 89.9%; in data set [2], 82.9%. The LD50 in data set [3] was over 1000 mg/kg.

On to `CN(C(=O)CC(O)COc1ccc2[nH]c(=O)ccc2c1)C1CCCCC1` (centres unmarked) [compound 8, 6-[2-Hydroxy-3-(N-methyl-N-cyclohexylaminocarbonyl)propoxy]carbostyril], for which, in data set [1], the inhibition at 100 µM (stock) turned out to be 85.5%, the inhibition at 10 µM (stock) turned out to be 86.8% and the inhibition at 1 µM (stock) was found to be 2.9%. For the same compound, in data set [2], the inhibition at 100 µM (stock) was 91.7% and the inhibition at 10 µM (stock) was 41.1%. Further, in data set [3], the 50% lethal dose (LD50) was over 1000 mg/kg.

In the case of `O=C(CCCOc1ccc2[nH]c(=O)ccc2c1)N(Cc1ccccc1)C1CCCCC1` [compound 5, 6-{3-(N-Cyclohexyl-N-benzylaminocarbonyl)propoxy]carbostyril], in data set [1], the inhibition at 10 µM (stock) came out at 91.8%, the inhibition at 1 µM (stock) came out at 88.4% and the inhibition at 0.1 µM (stock) is 30.6%. Besides, in data set [2], the inhibition at 10 µM (stock) turned out to be 90.7% and the inhibition at 1 µM (stock) amounted to 61.2%. Moreover, the inhibition at 0.1 µM (stock) in data set [2] (10^-7 mole) was 18.9%. The LD50 in data set [3] was over 1000 mg/kg.

Regarding `O=C(CCCOc1ccc2c(c1)CCC(=O)N2)Nc1ccccc1` [compound 19, 6-[3-(Anilinocarbonyl)propoxy]-3,4-dihydrocarbostyril], in data set [1], the inhibition at 100 µM (stock) is 93.8% and the inhibition at 10 µM (stock) is 17.4%. Also, in data set [2], the inhibition at 100 µM (stock) stood at 24.6% and the inhibition at 10 µM (stock) was 16.2%. Moreover, the LD50 in data set [3] is over 1000 mg/kg.

For the compound `O=C(O)CCCOc1ccc2[nH]c(=O)ccc2c1` [compound 39, 6-(3-Carboxypropoxy)carbostyril, reference compound], in data set [1], the inhibition at 100 µM (stock) came out at 28%, the inhibition at 10 µM (stock) worked out at 15% and the inhibition at 1 µM (stock) was 0%. For the same compound, in data set [2], the inhibition at 100 µM (stock) stood at 52%, the inhibition at 10 µM (stock) came to 23% and the inhibition at 1 µM (stock) was 5%. Moreover, the 50% lethal dose (LD50) in data set [3] was over 1000 mg/kg.

As for `CC(C)(Oc1ccc2c(c1)CCC(=O)N2)C(=O)O` [compound 38, 6-(1-Methyl-1-carboxyethoxy)-3,4-dihydrocarbostyril, reference compound], in data set [1], the inhibition at 100 µM (stock) was 5%, the inhibition at 10 µM (stock) is 3% and the inhibition at 1 µM (stock) was 0%. Moreover, in data set [2], the inhibition at 100 µM (stock) is 10%, the inhibition at 10 µM (stock) stood at 5% and the inhibition at 1 µM (stock) turned out to be 3%. Also, in data set [3], the LD50 lay in the range of 800 to 1000 mg/kg.

Consider `CN(C(=O)CCCOc1ccc(O)c2c1CCC(=O)N2)C1CCCCC1` [compound 10, 8-Hydroxy-5-[3-(N-Methyl-N-cyclohexylaminocarbonyl)propoxy]-3,4-dihydrocarbostyril], for which, in data set [1], the inhibition at 100 µM (stock) was found to be 91.8% and the inhibition at 10 µM (stock) is 29.3%. Also, in data set [2], the inhibition at 100 µM (stock) came out at 53.9% and the inhibition at 10 µM (stock) is 18.4%. For the same compound, in data set [3], the LD50 is over 1000 mg/kg.

The values are drawn from patent US4298739A, “Novel carbostyril derivatives” (priority 1977, dated 1981).
